# Source: paper PMC6973011, “Stafia‐1: a STAT5a‐Selective Inhibitor Developed via Docking‐Based Screening of in Silico O‐Phosphorylated Fragments” (Chemistry (Weinheim an Der Bergstrasse, Germany), 2019)
# Columns and labels:
# [1] = test system: endogenous STAT5a/b; experiment: Phosphorylation of endogenous STAT5a/b in K562 cells (Western blot)
# Experimental: In these cells, both STAT5a and STAT5b are constitutively phosphorylated on Tyr694 (STAT5a) and Tyr699 (STAT5b), respectively, by Bcr‐Abl. Since phosphorylation is dependent on the function of the SH2 domain, a STAT5 SH2 domain inhibitor will reduce the ability of STAT5 to be tyrosine phosphorylated by Bcr‐Abl (Figure 5 B).
# Chronic myeloid leukemia K562 cells were obtained from DSMZ (Braunschweig, Germany).
# K562 cells were cultured in RPMI 1640 medium (Gibco Life Technologies), supplemented by 10 % (v/v) FBS (Gibco Life Technologies), 2 mM L-glutamine (Gibco Life Technologies) and 1 % (v/v) penicillin/streptomycin (Gibco Life Technologies), at 37 °C, 5 % CO2 and 95 %
# In brief, cells were transfected with plasmid encoding either human wild-type STAT5a-GFP or STAT5b-GFP. K562 cells (6 x 10^5 cells per well) were seeded into 24-well plate (Corning) and were transfected using Fugene HD Transfection Reagent (Promega) with a 4:1 ratio of Fugene:DNA. […] After harvesting, cells were centrifuged at 3.000 rpm at 4 °C for 5 min. […] Primary antibodies (phospho-STAT5, STAT5, β-Actin; 1:1000, Cell Signaling) were detected using α-rabbit-HRP secondary antibody (1:3000, Dako) and ECL (Western Lightning Plus chemiluminescence reagent, Perkin-Elmer).
# (§1) Visualization was carried out using an ImageQuant digital imaging system (GE Healthcare) and ImageJ software (NIH) was used for quantitative analysis.[17]
# [2] = target: T1, STAT5a‐GFP fusion protein (Homo sapiens, UniProt P42229); settings: K562 cells, 4 h treatment
# T1 sequence (P42229 1-794): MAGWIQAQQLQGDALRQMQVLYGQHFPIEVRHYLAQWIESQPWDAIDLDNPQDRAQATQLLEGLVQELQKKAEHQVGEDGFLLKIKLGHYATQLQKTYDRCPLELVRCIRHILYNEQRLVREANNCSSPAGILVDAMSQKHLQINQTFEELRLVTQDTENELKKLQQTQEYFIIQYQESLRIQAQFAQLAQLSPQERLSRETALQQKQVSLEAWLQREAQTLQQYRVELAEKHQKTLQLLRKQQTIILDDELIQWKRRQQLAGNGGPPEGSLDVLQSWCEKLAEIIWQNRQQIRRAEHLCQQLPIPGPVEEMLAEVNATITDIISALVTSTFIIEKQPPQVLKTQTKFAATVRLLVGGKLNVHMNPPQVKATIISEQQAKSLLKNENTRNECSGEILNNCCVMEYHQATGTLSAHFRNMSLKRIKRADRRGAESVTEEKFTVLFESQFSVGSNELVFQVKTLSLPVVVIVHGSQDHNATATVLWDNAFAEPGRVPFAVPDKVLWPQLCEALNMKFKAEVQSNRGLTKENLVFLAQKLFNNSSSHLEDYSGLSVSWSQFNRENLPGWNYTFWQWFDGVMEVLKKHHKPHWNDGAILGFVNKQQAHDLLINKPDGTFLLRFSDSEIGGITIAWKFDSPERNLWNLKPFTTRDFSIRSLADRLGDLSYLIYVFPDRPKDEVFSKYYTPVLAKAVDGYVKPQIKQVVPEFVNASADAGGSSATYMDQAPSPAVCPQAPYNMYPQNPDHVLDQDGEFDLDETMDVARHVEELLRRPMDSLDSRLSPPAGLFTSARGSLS
# Experimental: (§2) 27 was tested for its ability to prevent phosphorylation of STAT5a in K562 cells, a human chronic myelogenous leukemia cell line. In these cells, both STAT5a and STAT5b are constitutively phosphorylated on Tyr694 (STAT5a) and Tyr699 (STAT5b), respectively, by Bcr‐Abl. Since phosphorylation is dependent on the function of the SH2 domain, a STAT5 SH2 domain inhibitor will reduce the ability of STAT5 to be tyrosine phosphorylated by Bcr‐Abl (Figure 5 B).
# (§3) C) Effect of 27 on phosphorylation of STAT5a in STAT5a‐GFP‐transfected K562 cells, and D) on phosphorylation of STAT5b in STAT5b‐GFP‐transfected K562 cells. E, F) Quantitation of the data shown in C) (n=4), and D) (n=3), respectively. Phospho‐STAT5a/b‐GFP levels are normalized against total STAT5a/b‐GFP. All error bars represent standard deviations (s.d.).
# (§4) Chronic myeloid leukemia K562 cells were obtained from DSMZ (Braunschweig, Germany). […]
# (§5) Transfection of cultured K562 cells and Western blotting was performed as previously described.[14, 16] […] Primary antibodies (phospho-STAT5, STAT5, β-Actin; 1:1000, Cell Signaling) were detected using α-rabbit-HRP secondary antibody (1:3000, Dako) and ECL (Western Lightning Plus chemiluminescence reagent, Perkin-Elmer).
# as §1
# [3] = target: T2, STAT5b‐GFP construct (Homo sapiens, UniProt P51692); settings: K562 cells, 4 h treatment
# T2 sequence (P51692 1-787): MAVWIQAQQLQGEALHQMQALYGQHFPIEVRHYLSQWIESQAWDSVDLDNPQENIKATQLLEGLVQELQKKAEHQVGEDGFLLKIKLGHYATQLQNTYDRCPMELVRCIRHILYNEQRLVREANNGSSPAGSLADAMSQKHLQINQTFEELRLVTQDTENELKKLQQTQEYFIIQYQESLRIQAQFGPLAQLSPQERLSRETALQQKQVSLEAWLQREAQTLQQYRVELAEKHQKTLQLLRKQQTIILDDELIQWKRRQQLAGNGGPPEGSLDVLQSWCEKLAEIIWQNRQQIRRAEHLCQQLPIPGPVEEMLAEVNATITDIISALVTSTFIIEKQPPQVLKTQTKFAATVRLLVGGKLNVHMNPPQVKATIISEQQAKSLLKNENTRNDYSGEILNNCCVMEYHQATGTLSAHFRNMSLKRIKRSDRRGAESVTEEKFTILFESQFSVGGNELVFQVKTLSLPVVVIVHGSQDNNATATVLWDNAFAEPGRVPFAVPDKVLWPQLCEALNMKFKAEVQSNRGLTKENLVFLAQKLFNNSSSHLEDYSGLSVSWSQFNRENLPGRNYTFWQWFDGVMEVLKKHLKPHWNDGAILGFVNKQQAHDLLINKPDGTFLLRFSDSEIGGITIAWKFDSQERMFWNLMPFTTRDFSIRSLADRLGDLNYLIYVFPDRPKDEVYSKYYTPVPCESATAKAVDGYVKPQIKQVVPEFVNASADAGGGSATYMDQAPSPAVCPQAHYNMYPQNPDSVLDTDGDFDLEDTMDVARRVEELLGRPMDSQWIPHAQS
# Experimental: as §2, §3, §4, §5, §1
smiles,measurement,setting,value
COc1cc(-c2cc(-c3cc(OC)c(OC)c(OC)c3)cc(C(F)P(=O)(OCOC(=O)C(C)(C)C)OCOC(=O)C(C)(C)C)c2)cc(OC)c1OC (stereo not drawn) [Compound 27],phosphorylation of endogenous STAT5a/b,[1],reduced to a substantially lower degree than that of STAT5a‐GFP
same,phosphorylation of STAT5a Tyr694 in the STAT5a-GFP fusion protein,[2],inhibited in a dose‐dependent manner
same,phosphorylation of Tyr699 in the STAT5b-GFP construct,[3],only minimally affected
